Publication PMC9732821, “Neurotrophic Activity and Its Modulation by Zinc Ion of a Dimeric Peptide Mimicking the Brain-Derived Neurotrophic Factor N-Terminal Region” (ACS Chemical Neuroscience, 2022)

Legend:
[1] = test system: human TrkB; assay: TrkB phosphorylation, immunoprecipitation and western blot in SH-SY5Y cells transfected with hTrkB-EGFP; type: cell-based; conditions: 10 μM peptide, 10 min stimulation, normalized to ctrl; four replicas (peptides); one-way ANOVA with Bonferroni
Source text: The possibility of mimicking the function of the full-length BDNF protein by using a linear peptide fragment encompassing the first 12 amino acids of the mature NT N-terminal was already postulated.[31] Here, we named this sequence as m-bdnf (Figure 1A) and performed a systematic comparison between the performance of the full-length human BDNF produced recombinantly in Escherichia coli([32]) and (i) m-bdnf, (ii) a dimeric peptide displaying two copies of the m-bdnf sequence covalently bound by a disulfide bridge (d-bdnf), and (iii) a monomeric peptide displaying the scrambled sequence of m-bdnf (s-bdnf). We first investigated the ability of these peptides to activate the TrkB receptor. To this purpose, we expressed a recombinant GFP fusion of human TrkB (Figure 1A) in SH-SY5Y cells. Then, cells were stimulated with BDNF or the related peptides. […] Then, the same cell-based assays for ERK phosphorylation were used to better elucidate the agonist properties of d-bdnf (Figure 1D). […] Specifically, an EC50 concentration of BDNF (1 nM) or of d-bdnf (10 μM) was used in combination with the increasing concentration of d-bdnf and BDNF, respectively, and the increase of ERK phosphorylation was assessed. […] Of note, we also performed a non-permeabilizing immunofluorescence analysis to quantify the membrane-bound BDNF in differentiated SH-SY5Y cells in the absence or presence of BDNF and d-bdnf (Figure S1C,D). […] The same increment was not observed upon treatment with the d-bdnf peptide, while instead we measured a slight (∼18%) decrease of the signal possibly due to the ability of the peptide to displace endogenous BDNF at the tested dose (10 μM). […]
Figure 1 Activation of the TrkB receptor by BDNF and its mimetic peptide ligands. […] (C) Scatter dot plot of ERK (left) and AKT (right) phosphorylation levels detected in differentiated SH-SY5Y cells, after stimulation with the same treatments as in (B). […] (G) Bar graph of mean ± SD ‘B-1’ values retrieved from N&B analysis for all the different conditions measured. […]

[2] = test system: membrane-bound BDNF; assay: membrane-bound BDNF, non-permeabilizing immunofluorescence in differentiated SH-SY5Y cells; type: cell-based, human; conditions: 1 h
Source text: The possibility of mimicking the function of the full-length BDNF protein by using a linear peptide fragment encompassing the first 12 amino acids of the mature NT N-terminal was already postulated.[31] Here, we named this sequence as m-bdnf (Figure 1A) and performed a systematic comparison between the performance of the full-length human BDNF produced recombinantly in Escherichia coli([32]) and (i) m-bdnf, (ii) a dimeric peptide displaying two copies of the m-bdnf sequence covalently bound by a disulfide bridge (d-bdnf), and (iii) a monomeric peptide displaying the scrambled sequence of m-bdnf (s-bdnf). We first investigated the ability of these peptides to activate the TrkB receptor. […] Specifically, an EC50 concentration of BDNF (1 nM) or of d-bdnf (10 μM) was used in combination with the increasing concentration of d-bdnf and BDNF, respectively, and the increase of ERK phosphorylation was assessed. […] Of note, we also performed a non-permeabilizing immunofluorescence analysis to quantify the membrane-bound BDNF in differentiated SH-SY5Y cells in the absence or presence of BDNF and d-bdnf (Figure S1C,D). […] The same increment was not observed upon treatment with the d-bdnf peptide, while instead we measured a slight (∼18%) decrease of the signal possibly due to the ability of the peptide to displace endogenous BDNF at the tested dose (10 μM). […]

Molecule: HSDPARRGELSV-NH2 [m-bdnf, linear peptide fragment encompassing the first 12 amino acids of the mature NT N-terminal]
- TrkB phosphorylation (p-Tyr/TrkB band density) [1]: only d-bdnf was able to promote a significant TrkB phosphorylation

Molecule: HSDPARRGELSVC-C-VSLEGRRAPDSH (disulfide) [d-bdnf]
- TrkB phosphorylation (p-Tyr/TrkB band density) [1]: significant TrkB phosphorylation (p < 0.05)
- decrease of membrane-bound BDNF fluorescent signal ([2]; d-bdnf 10 μM): ~18%

Molecule: SRAGPHLRDVSE-NH2 [s-bdnf]
- TrkB phosphorylation (p-Tyr/TrkB band density) [1]: only d-bdnf was able to promote a significant TrkB phosphorylation

B1: brain-derived neurotrophic factor (protein, UniProt P23560 1-247, looked up)
chain: MTILFLTMVISYFGCMKAAPMKEANIRGQGGLAYPGVRTHGTLESVNGPKAGSRGLTSLADTFEHVIEELLDEDQKVRPNEENNKDADLYTSRVMLSSQVPLEPPLLFLLEEYKNYLDAANMSMRVRRHSDPARRGELSVCDSISEWVTAADKKTAVDMSGGTVTVLEKVPVSKGQLKQYFYETKCNPMGYTKEGCRGIDKRHWNSQCRTTQSYVRALTMDSKKRIGWRFIRIDTSCVCTLTIKRGR
modifications: full-length
notes: full-length human BDNF produced recombinantly in Escherichia coli
- increase of membrane-bound BDNF fluorescent signal ([2]; BDNF 150 ng/mL): ~40%
